Reference: patent US9073876B2, “Flap modulators” (JANSSEN PHARMACEUTICA NV, priority 2013, dated 2015)

What was measured:
[1] = tested on: leukotriene pathway in human whole blood (LTB4 levels); assay: Human whole blood assay (LTB4); assay type: cell-based; settings: human whole blood diluted 1:1 in RPMI, stimulated with calcium ionophore A23187; single replicate
Outline: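 Single-replicate data from at least one healthy donor: compound pre-incubated 15 min at 37° Celsius in 1:1 RPMI-diluted heparinised blood, followed by 30 min calcium ionophore A23187 (7 μg/mL) challenge at 37° Celsius. LTB4 in plasma quantified by kit; IC50 via 4-parameter equation.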

[2] = target: human FLAP (Homo sapiens (Human), UniProt P20292); assay: FLAP binding assay (HTRF); settings: human FLAP-containing membranes, HTRF format; average of two assay plates, duplicates; read-out: FLAP Binding wild type HTRF Ki
Sequence of human FLAP (P20292 whole entry): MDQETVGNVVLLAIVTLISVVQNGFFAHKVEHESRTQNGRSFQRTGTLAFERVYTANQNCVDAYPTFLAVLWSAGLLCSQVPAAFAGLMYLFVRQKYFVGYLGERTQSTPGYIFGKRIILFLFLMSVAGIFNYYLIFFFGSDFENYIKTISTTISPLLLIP
Outline: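 Binding of compounds to FLAP read out as HTRF ratio. Values are the mean of two assay plates, each sample run in duplicate per plate.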

Structure (SMILES)	IC50 [1] [nM]	Ki [2] [nM]
Nc1cnc(-c2ccc(C3CCC3)c(OCc3c(F)cccc3F)c2F)cn1 [Example 31, 5-{4-Cyclobutyl-3-[(2,6-difluorobenzyl)oxy]-2-fluorophenyl}pyrazin-2-amine]	1960	170
Nc1cnc(-c2ccc(C3CCC3)c(OCc3ccccc3Cl)c2F)cn1 [Example 34, 5-{3-[(2-Chlorobenzyl)oxy]-4-cyclobutyl-2-fluorophenyl}pyrazin-2-amine]	1570	304
Nc1cnc(-c2ccc(C3CCC3)c(OCc3cccc(Cl)c3)c2F)cn1 [Example 35, 5-{3-[(3-Chlorobenzyl)oxy]-4-cyclobutyl-2-fluorophenyl}pyrazin-2-amine]	1140	173
Nc1cnc(-c2ccc(C3CCC3)c(OCc3ccc(Cl)cc3)c2F)cn1 [Example 36, 5-{3-[(4-Chlorobenzyl)oxy]-4-cyclobutyl-2-fluorophenyl}pyrazin-2-amine]	2540	220
Nc1cnc(-c2ccc(C3CCC3)c(OCc3c(Cl)cccc3Cl)c2F)cn1 [Example 37, 5-{4-Cyclobutyl-3-[(2,6-dichlorobenzyl)oxy]-2-fluorophenyl}pyrazin-2-amine]	2500	250
Cc1ccc(COc2c(C3CCC3)ccc(-c3cnc(N)cn3)c2F)cc1C [Example 41, 5-{4-Cyclobutyl-3-[(3,4-dimethylbenzyl)oxy]-2-fluorophenyl}pyrazin-2-amine]	1350	250
Nc1cnc(-c2ccc(C3CCC3)c(OCc3cc(F)ccc3Cl)c2F)cn1 [Example 45, 5-{3-[(2-Chloro-5-fluorobenzyl)oxy]-4-cyclobutyl-2-fluorophenyl}pyrazin-2-amine]	720	193
Nc1cnc(-c2ccc(C3CCC3)c(OCc3ccccc3C(=O)O)c2F)cn1 [Example 46, 2-{[3-(5-Aminopyrazin-2-yl)-6-cyclobutyl-2-fluorophenoxy]methyl}benzoic acid]	5620	8
Cn1ccc(COc2c(C3CCC3)ccc(-c3cnc(N)cn3)c2F)n1 [Example 47, 5-{4-Cyclobutyl-2-fluoro-3-[(1-methyl-1H-pyrazol-3-yl)methoxy]phenyl}pyrazin-2-amine]	300	42
Cc1ccnc(Oc2c(C3CCC3)ccc(-c3cnc(N)cn3)c2F)n1 [Example 69, 5-{4-cyclobutyl-2-fluoro-3-[(4-methylpyrimidin-2-yl)oxy]phenyl}pyrazin-2-amine]	73.9	30
Nc1cnc(-c2ccc(C3CCC3)c(OCC3CC3)c2F)cn1 [Example 72, 5-[4-Cyclobutyl-3-(cyclopropylmethoxy)-2-fluorophenyl]pyrazin-2-amine]	737	18
COc1ccc(S(F)(F)(F)(F)F)cc1COc1c(C2CCC2)ccc(-c2cnc(N)cn2)c1F [Example 76, 5-(4-Cyclobutyl-2-fluoro-3-{[2-methoxy-5-(pentafluoro-lambda~6~- sulfanyl)benzyl]oxy}phenyl)pyrazin-2-amine]	1770	250
Nc1cnc(-c2ccc(C3CCC3)c(OCc3ccc(S(F)(F)(F)(F)F)cc3F)c2F)cn1 [Example 78, 5-(4-Cyclobutyl-2-fluoro-3-{[2-fluoro-4-(pentafluoro-lambda~6~- sulfanyl)benzyl]oxy}phenyl)pyrazin-2-amine]	1290	173
Nc1cnc(-c2ccc(C3CCC3)c(OCc3ccc(S(F)(F)(F)(F)F)cc3)c2F)cn1 [Example 79, 5-(4-Cyclobutyl-2-fluoro-3-{[4-(pentafluoro-lambda~6~- sulfanyl)benzyl]oxy}phenyl)pyrazin-2-amine]	2230	250
Nc1cnc(-c2ccc(C3CCC3)c(OCc3cccc(S(F)(F)(F)(F)F)c3)c2F)cn1 [Example 80, 5-(4-Cyclobutyl-2-fluoro-3-{[3-(pentafluoro-lambda~6~- sulfanyl)benzyl]oxy}phenyl)pyrazin-2-amine]	3290	304
Nc1cnc(-c2ccc(C3CCC3)c(OCc3ccccc3)c2F)cn1 [Example 83, 5-[3-(Benzyloxy)-4-cyclobutyl-2-fluorophenyl]-pyrazin-2-amine]	605	37
Nc1cnc(-c2ccc(C3CCC3)c(OCCc3ccc(C(=O)O)cc3)c2F)cn1 [Example 84, 4-{2-[3-(5-Aminopyrazin-2-yl)-6-cyclobutyl-2-fluorophenoxy]ethyl}benzoic acid]	886	70
Cc1cc(N)nc(Oc2c(C3CCC3)ccc(-c3cnc(N)cn3)c2F)n1 [Example 86, 2-[3-(5-Aminopyrazin-2-yl)-6-cyclobutyl-2-fluorophenoxy]-6-methylpyrimidin-4-amine]	35.1	5
Nc1cnc(-c2ccc(C3CCC3)c(Oc3nccc(-c4ccccc4)n3)c2F)cn1 [Example 87, 5-{4-Cyclobutyl-2-fluoro-3-[(4-phenylpyrimidin-2-yl)oxy]phenyl}pyrazin-2-amine]	6.7	1

Structure (SMILES)	IC50 [1] [nM]	Ki [2] [nM]
CSc1ccnc(Oc2c(C3CCC3)ccc(-c3cnc(N)cn3)c2F)n1 [Example 88, 5-(4-Cyclobutyl-2-fluoro-3-{[4-(methylsulfanyl)pyrimidin-2-yl]oxy}phenyl)pyrazin-2-amine]	36.1	4
Cc1cc(C)nc(Oc2c(C3CCC3)ccc(-c3cnc(N)cn3)c2F)n1 [Example 89, 5-{4-Cyclobutyl-3-[(4,6-dimethylpyrimidin-2-yl)oxy]-2-fluorophenyl}pyrazin-2-amine]	22.2	4
Nc1cnc(-c2ccc(C3CCC3)c(Oc3nccc(-c4cccs4)n3)c2F)cn1 [Example 91, 5-{4-Cyclobutyl-2-fluoro-3-[(4-thiophen-2-ylpyrimidin-2-yl)oxy]phenyl}pyrazin-2-amine]	4.8	1
COc1ccnc(Oc2c(C3CCC3)ccc(-c3cnc(N)cn3)c2F)n1 [Example 93, 5-{4-Cyclobutyl-2-fluoro-3-[(4-methoxypyrimidin-2-yl)oxy]phenyl}pyrazin-2-amine]	30.8	3
COc1cnc(Oc2c(C3CCC3)ccc(-c3cnc(N)cn3)c2F)nc1 [Example 94, 5-{4-Cyclobutyl-2-fluoro-3-[(5-methoxypyrimidin-2-yl)oxy]phenyl}pyrazin-2-amine]	101	27
CS(=O)(=O)c1ccnc(Oc2c(C3CCC3)ccc(-c3cnc(N)cn3)c2F)n1 [Example 95, 5-(4-Cyclobutyl-2-fluoro-3-{[4-(methylsulfonyl)pyrimidin-2-yl]oxy}phenyl)pyrazin-2-amine]	> 1000	5
Cc1cc(Oc2c(C3CCC3)ccc(-c3cnc(N)cn3)c2F)nc(N)n1 [Example 96, 4-[3-(5-aminopyrazin-2-yl)-6-cyclobutyl-2-fluorophenoxy]-6-methylpyrimidin-2-amine]	33.8	7
COc1cc(Oc2c(C3CCC3)ccc(-c3cnc(N)cn3)c2F)ncn1 [Example 97, 5-{4-Cyclobutyl-2-fluoro-3-[(6-methoxypyrimidin-4-yl)oxy]phenyl}pyrazin-2-amine]	153	32
Nc1cnc(-c2ccc(C3CCC3)c(Oc3cc(O)ncn3)c2F)cn1 [Example 98, 6-[3-(5-Aminopyrazin-2-yl)-6-cyclobutyl-2-fluorophenoxy]pyrimidin-4-ol]	175	8
COc1cc(Oc2c(C3CCC3)ccc(-c3cnc(N)cn3)c2F)nc(N)n1 [Example 99, 4-[3-(5-Aminopyrazin-2-yl)-6-cyclobutyl-2-fluorophenoxy]-6-methoxypyrimidin-2-amine]	40.7	6
COc1nc(N)cc(Oc2c(C3CCC3)ccc(-c3cnc(N)cn3)c2F)n1 [Example 100, 6-[3-(5-Aminopyrazin-2-yl)-6-cyclobutyl-2-fluorophenoxy]-2-methoxypyrimidin-4-amine]	12.6	1
N#Cc1ccc(Oc2c(C3CCC3)ccc(-c3cnc(N)cn3)c2F)cc1 [Example 101, 4-[3-(5-Aminopyrazin-2-yl)-6-cyclobutyl-2-fluorophenoxy]benzonitrile]	914	23
Nc1cnc(-c2ccc(C3CCC3)c(Oc3cccc(C(F)(F)F)n3)c2F)cn1 [Example 102, 5-(4-Cyclobutyl-2-fluoro-3-{[6-(trifluoromethyl)pyridin-2-yl]oxy}phenyl)pyrazin-2-amine]	103	2
COC(=O)c1ccc(Oc2c(C3CCC3)ccc(-c3cnc(N)cn3)c2F)cc1 [Example 103, Methyl 4-[3-(5-aminopyrazin-2-yl)-6-cyclobutyl-2-fluorophenoxy]benzoate]	675	35
Nc1cnc(-c2ccc(C3CCC3)c(Oc3ncc(C(F)(F)F)cn3)c2F)cn1 [Example 104, 5-(4-Cyclobutyl-2-fluoro-3-{[5-(trifluoromethyl)pyrimidin-2-yl]oxy}phenyl)pyrazin-2-amine]	2810	100
Nc1cnc(-c2ccc(C3CCC3)c(Oc3ccc(C(F)(F)F)nn3)c2F)cn1 [Example 106, 5-(4-Cyclobutyl-2-fluoro-3-{[6-(trifluoromethyl)pyridazin-3-yl]oxy}phenyl)pyrazin-2-amine]	376	84
COC(=O)c1ccc(Oc2c(C3CCC3)ccc(-c3cnc(N)cn3)c2F)nc1 [Example 107, Methyl 6-[3-(5-aminopyrazin-2-yl)-6-cyclobutyl-2-fluorophenoxy]pyridine-3-carboxylate]	177	6.9
N#Cc1ccc(Oc2c(C3CCC3)ccc(-c3cnc(N)cn3)c2F)cn1 [Example 108, 5-[3-(5-Aminopyrazin-2-yl)-6-cyclobutyl-2-fluorophenoxy]pyridine-2-carbonitrile]	1310	24.6
